From patent EP4458977A1, “SELF-ASSEMBLING PEPTIDE AMPHIPHILES AS RETROVIRAL TRANSDUCTION ENHANCERS” (Max-Planck-Gesellschaft zur Förderung der Wissenschaften …, priority 2023, dated 2024)
“And” between values parts separate entries of the source, which are not always exact repeats. Identical values can stand only once. “Also recorded” adds a separate entry of the source. Where a SMILES comes first, the peptide text is derived from it. The star is where a group is joined. Palmitoyl = CCCCCCCCCCCCCCCC(=O)*

Tests used:
[1] = tested on: HeLa cells; assay: Confocal laser scanning microscopy and degradation study with PA library and HeLa cells; assay type: cell-based
How it was run: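 HeLa cells (20,000/well) got Proteostat-stained PAs (2 µg peptide per 20.000 cells) with Hoechst nuclear stain, 30 min at 37°C, PBS-washed, then held 3 d at 37°C unwashed. Confocal imaging at d0 and d3 counted aggregates >10 µm^2 in 1008 × 1008 µm, three technical replicates. Degradation taken as d3/d0 aggregate number.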

[2] = Thioflavin T (ThT) fluorescence assay; assay type: physicochemical; parameters: key to ThT: + = ThT active; - = no ThT fluorescence observed
How it was run: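 ThT fluorescence of peptide fibrils judged against a PBS/10% DMSO control; fibrils scored ThT-active when intensity was at least twice that control.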

[3] = Zeta-potential measurement (dynamic light scattering); assay type: physicochemical
[4] = tested on: HeLa cells; assay: Confocal laser scanning microscopy and degradation study with PA1-3 and HeLa cells; assay type: cell-based
Method: 4 µL of the preformed peptide fibrils (1 mg mL^-1) were diluted with 4 µL Proteostat (Enzo Life Science, 1 µL stock in 999 µL PBS) and incubated for 10 min and further diluted with medium to receive a final peptide concentration of 20 µg mL^-1. The nucleus of the HeLa cells was stained with Hoechst 33342 (NucBlue™, Thermo Fisher Scientific). The peptide solution was transferred to the HeLa cells and incubated for 30 min at 37°C before washing three times with PBS. […] For the evaluation of aggregate degradation, the samples were further incubated at 37°C for 3 d and analyzed without any additional washing step. […] The number of aggregates were determined by accumulating the number of aggregates larger than 10 µm^2 in an area of 581.25 × 581.25 µm, repeated in three technical triplicates.

[5] = TEM of peptide assemblies (fibril formation / assembly); assay type: physicochemical; parameters: key to Fibril Formation: "1" means fibril formation observed; "0" means no fibrils observed; details: for Fibril Formation: via TEM
How it was run: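 Peptides predissolved in DMSO at 10 mg/mL (stock), diluted in PBS to 650 µM or 1 mg/mL final and incubated 1 d at rt (20–25 °C) to form fibrils. Other concentrations obtained by diluting preformed fibrils; assemblies imaged by TEM.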

[6] = Zeta-potential measurement (dynamic light scattering); assay type: physicochemical; remark: listed apart in the source
How it was run: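 Peptide at 1 mg mL-1 stock was diluted tenfold in 1 mM KCl and measured by dynamic light scattering in triplicate. The derived count rate served as a light-scattering and turbidity indicator of microscopic aggregation.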

[7] = tested on: HIV-1; details: relative to virus only;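 further: TZM-bl reporter cells exposed to HIV-1 with peptide fibrils, infection read out as β-galactosidase luminescence, compared with virus alone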
Method: HIV-1 Infection Assay with TZM-bl cells: The effect of peptide fibrils on HIV-1 infection was studied via a luminescence assay for β-galactosidase, which was reported by TZM-bl cells upon infection. The HIV-1 infection assay was conducted in three technical replicates and repeated in three independent experiments unless stated otherwise.

[8] = ATR-FT-IR determination of β-sheet content; assay type: physicochemical; details: peak integration of parallel β-sheet at 1630 cm-1, 2nd derivative of ATR-IR spectra
How it was run: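 Lyophilized fibril samples measured by diamond ATR-FT-IR, 2 cm^-1 resolution, 64 scans averaged. β-sheet content taken from the second-derivative spectrum as the 1630 cm-1 peak integral relative to the 1650-1700 cm-1 integral.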

[9] = tested on: CD4+ T cells; details: 3 days; 1 µg peptide added to 250,000 cells
Method: Confocal laser scanning microscopy and degradation study with PA1-3 and CD4+ T cells: The degradation of the peptide assemblies on CD4+ T cells was determined by analyzing fluorescence microscopy images. To this end, 4 µL of the preassembled peptide fibrils EF-C, PA1 and PA2 (1 mg mL^-1, 1 d in PBS) were mixed with 4 µL of Proteostat (Enzo Life Science, 1 µL stock in 99 µL PBS) and incubated for 15 min. 2 µL of the stained fibrils were added to 198 µL preactivated and nucleus stained (Hoechst 33342) CD4+ T cells (200 µL, 0.25×10^6 resulting in a final 5 µg mL^-1concentration of the peptide. After incubation for 30 min at 37°C the cells were washed with 3x with PBS and incubated in medium (supplemented RPMI containing IL-15 and 7). Microscopy was conducted on a Zeiss LSM 710 confocal microscope with 20x and 63x objective and laser excitation wavelengths of 405 nm (Hoechst) and 561 nm (Proteostat). The measurements were performed after 30 min and 3 d of incubation at 37°C without any washing step in between. […]
The evaluation of aggregate size and number was conducted by analyzing Proteostat-stained aggregates via the 3D objects counter function of ImageJ 1.53f51 for 6 individual measurements (area 581.25 µm × 581.25 µm) of three individually repeated experiments. […] The degradation of the peptide assemblies on CD4+ T cells was determined by analyzing fluorescence microscopy images. […]

[10] = tested on: CD4+ T cells; assay: γ-retroviral transduction assay (GALV-RV, GFP+ cells); assay type: cell-based, Human
Method: (§1) γ-Retroviral transduction Assay with Jurkat and CD4+ T cells: The effect of peptide fibrils on retroviral transduction of Jurkat cells was analyzed 3 days post transduction by determining the percentage of GFP + cells by flow cytometry. The assay was conducted according prior art procedures.
Human CD4+ T cells were isolated from a Buffy coat using RosetteSep™ Human CD4+ Enrichment Cocktail ([…] Technologies) according to manufacturer's protocol. Isolated T cells were activated using Dynabeads™ Human T-Activator CD3/CD28 (GibcoTM) according to manufacturer's protocol in presence of 10 ng mL^-1 IL-2 (Miltenyi Biotec) for three days. After 3 days the magnetic Dynabeads were removed using a magnet and T cells were cultured in presence of 9 ng mL^-1 IL-7 (Miltenyi Biotec) and 10 ng mL^-1 IL-15 (Miltenyi Biotec). After 1 day 5×10^5 T cells were transduced with GALV-γ-RV in absence and presence of PA1, PA2, EF-C (0.26, 1.3 and 6.5 µM) and Vectofusin®-1 (10 µg mL^-1; Miltenyi Biotec), or RetroNectin (20 µg mL^-1; Takara Bio). […] After 3 days GFP+ T cells were analyzed by flow cytometry. Viability was determined using LIVE/DEAD™ Fixable Aqua Dead Cell Stain Kit (ThermoFisher Scientific) according to manufacturer's protocol.

[11] = Fluorescence microscopy of ThT-stained fibrils (µm-sized aggregates); assay type: physicochemical
How it was run: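 Fibrils (1 mg mL^-1) mixed 1:9 with 50 µM ThT, giving 0.1 mg mL^-1 stained fibrils on glass. Imaged under 10x air objective with excitation 480/40 nm and emission 527/30 nm. Fibrils called distinct when no visible structures appeared in fluorescence or brightfield.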

[12] = tested on: Jurkat cells; assay: γ-retroviral transduction assay (GALV-RV, GFP+ cells); assay type: cell-based
Method: as §1

## CCCCCCCCCCCCCCCC(=O)N[C@H](C(=O)N[C@H](C(=O)N[C@H](C(=O)N[C@@H](C)C(=O)N[C@@H](C)C(=O)N[C@@H](C)C(=O)N[C@@H](CCCCN)C(=O)N[C@@H](CCCCN)C(=O)N[C@@H](CCCCN)C(N)=O)C(C)C)C(C)C)C(C)C [PA1] (Palmitoyl-VVVAAAKKK-NH2)
[1]; HeLa cells, 3 d relative to 30 min
  Degradability / % (rel. to initial particles > 10 µm^2): 94%
[1]; d3 relative to d0
  aggregate number decreases / degraded in presence of HeLa cells within 3 days: 87% and 94%
[2]; ThT fluorescence, 1 mg/mL, PBS
  ThT: +
[2]; relative to PBS control
  N-fold ThT-fluorescence: 278.7
[3]
  Zeta-Potential / mV: 22.2 mV
[4]; 4 µg peptide added to 40,000 cells
  degraded over the course of 3 days in the presence of HeLa cells: 94%
[4]; HeLa cells, 30 min
  association with cellular membranes: association with cellular membranes
[5]; corresponding peptide without hydrophobic moiety
  Assembly without hydrophob residue: No
[5]; peptide amphiphile
  Assembly: Yes
[5]; hydrophobic moiety exchange
  Fibril Formation: 1
[5]; linkage chemistry exchange
  Fibril Formation: 1
[6]
  zeta-potential (in words): positive zeta-potential
[6]; 1 mg/mL, PBS
  Zeta Potential / mV: +22.2 ± 0.7 mV
[6]; derived count rate of scattered light during zeta-potential measurements
  Count Rate / kcps: 3138.4 kcps
[7]
  Infectivity enhancing N fold at 1.3 µM: 10±3 N fold
[8]
  β-sheet content / %: 57%
[9]
  degradation of aggregates by CD4+ T cells (in words): almost all small aggregates of PA1 (SEQ ID NO. 4) are degraded by CD4+ T cells
[10]
  transduction enhancement (in words): activity in the range of commercially available gold-standard enhancers RetroNectin and Vectofusin-1
[11]
  formation of µm-sized aggregates in aqueous medium / PBS (in words): formation of µm-sized aggregates; also recorded: microscopic clusters of fibrils were formed
[12]
  transduction enhancement (in words): strong transduction enhancement similar to EF-C
